This note sets out measurements from patent US20250109343A1, “CORROSION INHIBITOR” (INNOSPEC LIMITED, priority 2022, published 2025).

A short description of assay [1]: Linear Polarisation Resistance (LPR) Test, Example 30, synthetic brine composition 1 or 2.
Assay [2] can be described thus: LPR test of Example 31, variety of brines and brine/depolarised kerosene fluids. How it is done: The LPR test was carried out using the corrosion inhibitor of Example 1. The LPR test was carried out using the same conditions as the LPR test of Example 30 except for the composition of the corrosive fluid, the temperature, and the dose of the corrosion inhibitor.

Where [3] appears, read: brine composition 1, dose 40 ppm of product, one addition, time 19.9-20.1 hr, 60° C., constant CO2 sparge.
Setting [4] is: brine composition 2, dose 40* ppm, four additions each of 10 ppm, time 25.3-28.8 hr, 60° C., constant CO2 sparge.
Setting [5] is: Test 1: brine composition 1 (Table 6), 60 ° C., dose 50 ppm, 4 hours.
Setting [6] is: Test 3: brine composition 3 and depolarised kerosene 90:10 volume ratio, 82 ° C., dose 60 ppm, 5 hours.
Where [7] appears, read: Test 4: brine composition 4 and depolarised kerosene 90:10 volume ratio, 82 ° C., dose 60 ppm, 5 hours.
[8] abbreviates: Test 5: brine composition 5 and depolarised kerosene 90:10 volume ratio, 82 ° C., dose 60 ppm, 5 hours.
Setting [9] is: Test 6: brine composition 6 and depolarised kerosene 90:10 volume ratio, 82 ° C., dose 60 ppm, 5 hours.

With “disodium 2-octen-1-ylsuccinate [Example 5]”, in assay [1] (setting [3]), the Corrosion protection came out at 89% and the Corrosion rate was determined as 0.46 mmpy.
Consider “potassium PEG200 2-octen-1-yI succinate [Example 21]”, for which, in assay [1] (setting [4]), the Corrosion protection was found to be 59% and the Corrosion rate stood at 2.24 mmpy.
For the substance “sodium 1,6-hexanediol dodecenyl succinate [Example 15]”, in assay [1], the Corrosion protection is reported as 41% and the Corrosion rate turned out to be 1.68 mmpy.
In the same order, the values of “sodium 1-hexanol dodecenyl succinate [Example 10]” are 92% and 0.29 mmpy.
On the same counts, the results for “sodium 2-ethyl-1,3-hexanediol dodecenyl succinate [Example 9]” are 51% and 2.02 mmpy.
On the same counts, the results for “sodium 3-dimethylaminopropylamine dodecenyl succinamide [Example 13]” are 46% and 1.73 mmpy.
As to “sodium PEG200 2-octen-1-ylsuccinate [Example 1]”, the Corrosion protection in assay [2] (setting [5]) amounted to 96%; in assay [2] (Test 2: brine composition 2 (Table 6), 60 ° C., dose 50 ppm, 4 hours) it was 96%; in assay [2] (setting [6]), 99%; in assay [2] (setting [7]) it was 98%; in assay [2] (setting [8]) it was 96%; in assay [2] (setting [9]) it was 95%. Besides, the Corrosion protection in assay [1] stood at 99%. The Corrosion rate is 0.1320 mmpy in assay [2] (setting [5]); 0.0358 mmpy in assay [2] (setting [6]); 0.0833 mmpy in assay [2] (setting [7]); 0.1387 mmpy in assay [2] (setting [8]); 0.1646 mmpy in assay [2] (setting [9]); 0.03 mmpy in assay [1]. Besides, in assay [2] (variety of brines and brine/hydrocarbon emulsions), the “Corrosion inhibition, result in words” value was “effective corrosion inhibitor”.
Regarding “sodium benzyl alcohol dodecenyl succinate [Example 8]”, in assay [1], the Corrosion protection is on record as 96% and the Corrosion rate was 0.14 mmpy.
In the same order, the values of “sodium diethanolamine dodecenylsuccinamide [Example 4]” are 99% and 0.06 mmpy.
On to sodium dodecanol phthalate [Example 26], for which the Corrosion protection in assay [1] came out at 99%.
In assay [1], “sodium furfuryl alcohol dodecenyl succinic anhydride [Example 28]” displayed a Corrosion protection of 99% and a Corrosion rate of 0.04 mmpy.
With “triethanolamine PEG200 2-octen-1-yl succinate [Example 22]”, in assay [1], the Corrosion protection came out at 68% and the Corrosion rate was 2.44 mmpy.
